The source of these data is patent US11547300B2, “Methods of treating and imaging tumor micrometastases using photoactive immunoconjugates” (priority 2014, dated 2023).

One data set concerns OVCAR5 cells. Conditions: cited from earlier work.
A further data set deals with EOC (NIH:OVCAR5) tumors. Conditions: mouse, in vivo. As to the method: Micrometastatic mouse model. An orthotopic xenograft mouse model of human ovarian carcinomatosis was established in our laboratory with gynecologic oncologists (30). Athymic Swiss female Nu/Nu mice (20-25 grams and 6-8 weeks old; Cox Breeding Laboratories) were injected intraperitoneally (i.p.) with 16×10^6 NIH:OVCAR5 (EOC) cells in 2 mL phosphate-buffered saline. All experiments were conducted according to Massachusetts General Hospital Institutional Animal Care and Use Committee (IACUC) guidelines.

For `N.N.[Cl][Pt][Cl]` [cisplatin], the “resistance relative to a platinum sensitive cell line” value with OVCAR5 cells is 7 fold.

Consider verteporfin, for which, in the data set with EOC (NIH:OVCAR5) tumors, the tumor-to-bowel ratio was 2.7 and the “tumor-to-bowel ratio from fitting the pharmacokinetic data to a model” value worked out at 2.8.
